We go through 23 compounds from patent US11111233B2, “Amino pyrimidine compound for inhibiting protein tyrosine kinase activity” (Shenzhen TargetRx, Inc., priority 2016, dated 2021).

In experiment [1] the test system is Skin cancer cell line A431 (WT). As to the kind of experiment: Cytotoxicity test (MTS cell viability), A431. It is filed as cell-based.
Experiment [2] has as its system lung cancer cells HCC827 (Del19). As to the kind of experiment: Cytotoxicity test (MTS cell viability), HCC827. It is filed as cell-based.
For a further experiment, the target named is WT EGFR (Homo sapiens (Human), UniProt P00533). As to the kind of experiment: Kinase inhibition assay (HTRF), WT EGFR. It counts as biochemical. The following applies: HTRF Kinase TK kit, 10 min pre-incubation, 20 min reaction. (TR-FRET usually uses a lanthanide donor and a delayed reading to cut background.)
The target in the next experiment is EGFR [L858R/T790M] (Homo sapiens (Human), UniProt P00533, L858R/T790M). As to the kind of experiment: Kinase inhibition assay (HTRF), EGFR [L858R/T790M]. It is filed as biochemical. To be noted: HTRF Kinase TK kit, 10 min pre-incubation, 20 min reaction; read-out: EGFR(L858R/T790M) IC50.
The mark [3] stands for this setting: Homo sapiens, A-431, 72 h, read-out: A431 (WT) IC50(nM).
The mark [4] stands for this setting: Homo sapiens, HCC827, 72 h, read-out: HCC827 (Del19) IC50(nM).
Setting [5] is: Homo sapiens, A-431, MTS, 72 hours, read-out: A431 (WT) IC50.
[6] abbreviates: Homo sapiens, HCC827, MTS, 72 hours, read-out: HCC827 (Del19) IC50.

Like-named read-outs stand apart in the source and are kept apart here.

EGFR [L858R/T790M], sequence (P00533 25-1210 T790M/L858R): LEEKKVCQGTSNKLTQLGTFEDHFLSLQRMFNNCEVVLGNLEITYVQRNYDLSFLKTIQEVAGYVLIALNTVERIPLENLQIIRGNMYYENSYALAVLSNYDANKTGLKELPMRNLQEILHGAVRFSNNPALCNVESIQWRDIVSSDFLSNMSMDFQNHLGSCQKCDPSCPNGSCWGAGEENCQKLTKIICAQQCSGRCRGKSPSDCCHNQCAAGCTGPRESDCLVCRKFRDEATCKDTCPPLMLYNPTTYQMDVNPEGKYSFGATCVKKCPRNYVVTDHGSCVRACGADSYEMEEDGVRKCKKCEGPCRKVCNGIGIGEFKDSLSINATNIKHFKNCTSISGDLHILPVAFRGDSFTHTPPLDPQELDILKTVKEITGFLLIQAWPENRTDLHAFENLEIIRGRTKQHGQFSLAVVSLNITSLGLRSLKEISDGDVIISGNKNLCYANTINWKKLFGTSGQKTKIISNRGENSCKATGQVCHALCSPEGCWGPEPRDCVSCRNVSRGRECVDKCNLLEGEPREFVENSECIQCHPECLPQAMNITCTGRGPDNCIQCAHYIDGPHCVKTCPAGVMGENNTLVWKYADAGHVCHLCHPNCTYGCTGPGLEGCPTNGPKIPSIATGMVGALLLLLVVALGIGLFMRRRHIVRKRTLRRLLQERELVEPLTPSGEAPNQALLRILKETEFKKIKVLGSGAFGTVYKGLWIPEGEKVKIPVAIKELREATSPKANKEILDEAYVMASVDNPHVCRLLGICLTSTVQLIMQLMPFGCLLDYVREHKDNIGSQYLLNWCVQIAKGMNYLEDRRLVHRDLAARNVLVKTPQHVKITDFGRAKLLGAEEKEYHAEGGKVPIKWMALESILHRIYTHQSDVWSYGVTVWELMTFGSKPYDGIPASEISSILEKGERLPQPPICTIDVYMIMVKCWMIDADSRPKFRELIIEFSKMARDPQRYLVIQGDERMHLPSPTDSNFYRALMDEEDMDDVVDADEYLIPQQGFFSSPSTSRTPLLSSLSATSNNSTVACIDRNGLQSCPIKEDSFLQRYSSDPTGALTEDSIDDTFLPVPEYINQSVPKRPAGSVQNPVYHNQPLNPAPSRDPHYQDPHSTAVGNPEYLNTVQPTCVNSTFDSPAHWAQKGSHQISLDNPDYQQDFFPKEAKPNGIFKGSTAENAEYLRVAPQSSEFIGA
WT EGFR, sequence (P00533 25-1210): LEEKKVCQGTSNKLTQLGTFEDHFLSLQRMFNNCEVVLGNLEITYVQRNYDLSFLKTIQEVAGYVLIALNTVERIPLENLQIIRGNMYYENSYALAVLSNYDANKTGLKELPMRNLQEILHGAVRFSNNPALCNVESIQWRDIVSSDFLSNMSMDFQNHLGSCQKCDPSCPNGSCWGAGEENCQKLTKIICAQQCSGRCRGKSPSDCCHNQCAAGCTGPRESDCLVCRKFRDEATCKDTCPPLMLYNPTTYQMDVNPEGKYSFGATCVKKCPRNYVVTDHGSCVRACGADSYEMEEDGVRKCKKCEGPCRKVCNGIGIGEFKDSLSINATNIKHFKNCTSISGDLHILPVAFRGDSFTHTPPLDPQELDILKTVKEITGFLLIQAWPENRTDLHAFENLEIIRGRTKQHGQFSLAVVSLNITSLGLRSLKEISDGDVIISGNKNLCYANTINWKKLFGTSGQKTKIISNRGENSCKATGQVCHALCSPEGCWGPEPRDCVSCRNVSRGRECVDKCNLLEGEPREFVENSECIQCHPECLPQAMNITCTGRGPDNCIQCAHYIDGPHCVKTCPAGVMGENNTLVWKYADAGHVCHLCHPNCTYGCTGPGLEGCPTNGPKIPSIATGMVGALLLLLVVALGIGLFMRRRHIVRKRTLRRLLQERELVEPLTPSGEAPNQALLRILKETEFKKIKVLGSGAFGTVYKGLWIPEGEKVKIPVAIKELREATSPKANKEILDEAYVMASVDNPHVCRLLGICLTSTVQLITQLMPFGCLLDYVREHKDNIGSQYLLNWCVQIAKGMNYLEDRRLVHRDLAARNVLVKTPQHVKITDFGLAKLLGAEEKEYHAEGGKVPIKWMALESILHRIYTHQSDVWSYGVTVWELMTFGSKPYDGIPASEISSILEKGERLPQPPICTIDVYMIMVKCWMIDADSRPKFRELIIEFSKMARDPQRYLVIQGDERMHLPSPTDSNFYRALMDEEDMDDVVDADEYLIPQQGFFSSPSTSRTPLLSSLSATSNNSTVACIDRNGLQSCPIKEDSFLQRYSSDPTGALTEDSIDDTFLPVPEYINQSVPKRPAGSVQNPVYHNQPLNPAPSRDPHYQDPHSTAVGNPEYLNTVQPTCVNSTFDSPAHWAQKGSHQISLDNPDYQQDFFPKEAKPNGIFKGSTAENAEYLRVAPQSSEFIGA

As to `C=CC(=O)Nc1cc(Nc2nccc(-c3cn(C)c4ccccc34)n2)c(OC)cc1N(C)CCN(C)C` [AZD9291, reference compound], the IC50 lay in the range of 100 to 400 nM in experiment [1] (setting [3]) and 10 to 100 nM in experiment [2] (setting [4]).

As to `C=CC(=O)Nc1cc(Nc2ncc(Cl)c(-c3cc(F)c4nc(C)n(C(C)C)c4c3)n2)c(OC)cc1N(C)CCN(C)C` [Example 1, N-(2-((2-(dimethylamino)ethyl)(methyl)amino)-5-((5-chloro-4-(4-fluoro-1-isopropyl-2-methyl-1H-benzo[d]imidazole-6-yl)pyrimidin-2-yl)amino)-4-methoxyphenyl)acrylamide], the figures for the IC50 (against WT EGFR; in experiment [1] (setting [5]); in experiment [2] (setting [6])) were 1 to 50 nM, above 1000 nM and 10 to 100 nM, respectively.

As for `C=CC(=O)Nc1cc(Nc2ncc(C)c(-c3cc(F)c4nc(C)n(C(C)C)c4c3)n2)c(OC)cc1N(C)CCN(C)C` [Example 2, N-(2-((2-(dimethylamino)ethyl)(methyl)amino)-5-((5-methyl-4-(4-fluoro-1-isopropyl-2-methyl-1H-benzo[d]imidazole-6-yl)pyrimidin-2-yl)amino)-4-methoxyphenyl)acrylamide], the IC50 is 1 to 50 nM against WT EGFR, below 1 nM at EGFR [L858R/T790M], above 1000 nM in experiment [1] (setting [5]) and 10 to 100 nM in experiment [2] (setting [6]).

With `C=CC(=O)Nc1cc(Nc2ncc(OC)c(-c3cc(F)c4nc(C)n(C(C)C)c4c3)n2)c(OC)cc1N(C)CCN(C)C` [Example 3, N-(2-((2-(dimethylamino)ethyl)(methyl)amino)-5-((5-methoxy-4-(4-fluoro-1-isopropyl-2-methyl-1H-benzo[d]imidazole-6-yl)pyrimidin-2-yl)amino)-4-methoxyphenyl)acrylamide], the IC50 on WT EGFR and at EGFR [L858R/T790M] was 1 to 50 nM each time.

For `C=CC(=O)Nc1cc(Nc2ncc(C(F)(F)F)c(-c3cc(F)c4nc(C)n(C(C)C)c4c3)n2)c(OC)cc1N(C)CCN(C)C` [Example 4, N-(2-((2-(dimethylamino)ethyl)(methyl)amino)-5-((5-trifluoromethyl-4-(4-fluoro-1-isopropyl-2-methyl-1H-benzo[d]imidazole-6-yl)pyrimidin-2-yl)amino)-4-methoxyphenyl)acrylamide], the IC50 against WT EGFR was 1 to 50 nM; at EGFR [L858R/T790M], below 1 nM.

Consider `C=CC(=O)Nc1cc(Nc2nccc(-c3cc(F)c4nc5n(c4c3)C(C)(C)CC5)n2)c(OC)cc1N(C)CCN(C)C` [Example 5, N-(2-((2-(dimethylamino)ethyl)(methyl)amino)-5-((4-(5-fluoro-1,1-dimethyl-2,3-dihydro-1H-benzo[d]imidazole[1,2-a]pyrrol-6-yl)pyrimidin-2-yl)amino)-4-methoxyphenyl)acryl amide], for which the results for the IC50 at WT EGFR and on EGFR [L858R/T790M] were 1 to 50 nM and below 1 nM, respectively.

For `C=CC(=O)Nc1cc(Nc2nccc(-c3cc(F)c4nc(OC)n(C(C)C)c4c3)n2)c(OC)cc1N(C)CCN(C)C` [Example 6, N-(2-((2-(dimethylamino)ethyl)(methyl)amino)-5-((4-(4-fluoro-1-isopropyl-2-methoxy-1H-benzo[d]imidazole-6-yl)pyrimidin-2-yl)amino)-4-methoxyphenyl)acrylamide], the IC50 was 1 to 50 nM on WT EGFR, below 1 nM on EGFR [L858R/T790M], above 1000 nM in experiment [1] (setting [5]) and 10 to 100 nM in experiment [2] (setting [6]).

`C=CC(=O)Nc1cc(Nc2nccc(-c3cc(F)c4nc(OC)n(C(C)C)c4c3)n2)c(OC)cc1OCCN(C)C` [Example 7]: the results for the IC50 (at WT EGFR; in experiment [1] (setting [3]); in experiment [2] (setting [4])) were 1 to 50 nM, above 1000 nM and 10 to 100 nM, respectively.

For the compound `C=CC(=O)Nc1cc(Nc2ncc(Br)c(-c3cc(F)c4nc(C)n(C(C)C)c4c3)n2)c(OC)cc1N(C)CCN(C)C` [Example 8, N-(2-((2-(dimethylamino)ethyl)(methyl)amino)-5-((5-bromo-4-(4-fluoro-1-isopropyl-2-methyl-1H-benzo[d]imidazole-6-yl)pyrimidin-2-yl)amino)-4-methoxyphenyl)acrylamide], the IC50 was 1 to 50 nM on WT EGFR, 1 to 50 nM at EGFR [L858R/T790M], above 1000 nM in experiment [1] (setting [5]) and 10 to 100 nM in experiment [2] (setting [6]).

Turning to `C=CC(=O)Nc1cc(Nc2ncc(C3CC3)c(-c3cc(F)c4nc(C)n(C(C)C)c4c3)n2)c(OC)cc1N(C)CCN(C)C` [Example 9, N-(2-((2-(dimethylamino)ethyl)(methyl)amino)-5-((5-cyclopropyl-4-(4-fluoro-1-isopropyl-2-methyl-1H-benzo[d]imidazole-6-yl)pyrimidin-2-yl)amino)-4-methoxyphenyl)acrylamide], the IC50 on WT EGFR was above 100 nM; at EGFR [L858R/T790M], 1 to 50 nM; in experiment [1] (setting [5]) it was above 1000 nM; in experiment [2] (setting [6]), 400 to 1000 nM.

Regarding `C=CC(=O)Nc1cc(Nc2nccc(-c3cc(F)c4nc(C)n(C(C)C)c4c3)n2)c(OC)cc1SCCN(C)C` [Example 11, N-(2-(2-(dimethylamino)ethyl)(thio)-5-((4-(4-fluoro-1-isopropyl-2-methyl-1H-benzo[d]imidazole-6-yl)pyrimidin-2-yl)amino)-4-methoxyphenyl)acrylamide], the IC50 against WT EGFR fell in the range of 1 to 50 nM; in experiment [1] (setting [3]), 400 to 1000 nM; in experiment [2] (setting [4]), 10 to 100 nM.

In the case of `C=CC(=O)Nc1cc(Nc2nccc(-c3cc(F)c4nc(C)n(C(C)C)c4c3)n2)c(OC)cc1OCCN(C)C` [Example 12, N-(2-(2-(dimethylamino)ethyl)(oxy)-5-((4-(4-fluoro-1-isopropyl-2-methyl-1H-benzo[d]imidazole-6-yl)pyrimidin-2-yl)amino)-4-methoxyphenyl)acrylamide], the figures for the IC50 in experiment [1] (setting [3]) and in experiment [2] (setting [4]) were 100 to 400 nM and below 10 nM, respectively.

Consider `C=CC(=O)Nc1cc(Nc2nccc(-c3cc(F)c4nc(C)n(C(C)C)c4c3)n2)c(OC)cc1N1CCC(OC)CC1` [Example 15], for which the IC50 at EGFR [L858R/T790M] is 1 to 50 nM; in experiment [1] (setting [5]), above 1000 nM; in experiment [2] (setting [4]) it was 100 to 400 nM.

As for `C=CC(=O)Nc1cc(Nc2nccc(-c3cc(F)c4nc(C)n(C(C)C)c4c3)n2)c(OC)cc1N1CCOCC1` [Example 16], the IC50 on EGFR [L858R/T790M] was 1 to 50 nM; in experiment [1] (setting [5]) it was above 1000 nM; in experiment [2] (setting [4]), 100 to 400 nM.

For the compound `C=CC(=O)Nc1cc(Nc2ncc(C#N)c(-c3cc(F)c4nc(C)n(C(C)C)c4c3)n2)c(OC)cc1N(C)CCN(C)C` [Example 18, N-(2-((2-(dimethylamino)ethyl)(methyl)amino)-5-((5-cyano-4-(4-fluoro-1-isopropyl-2-methyl-1H-benzo[d]imidazole-6-yl)pyrimidin-2-yl)amino)-4-methoxyphenyl)acrylamide], the IC50 on WT EGFR is 1 to 50 nM; on EGFR [L858R/T790M], below 1 nM.

As for `C=CC(=O)Nc1cc(Nc2ncc(F)c(-c3cc(F)c4nc(C)n(C(C)C)c4c3)n2)c(OC)cc1N(C)CCN(C)C` [Example 19, N-(2-((2-(dimethylamino)ethyl)(methyl)amino)-5-((5-fluoro-4-(4-fluoro-1-isopropyl-2-methyl-1H-benzo[d]imidazole-6-yl)pyrimidin-2-yl)amino)-4-methoxyphenyl)acrylamide], the IC50 on WT EGFR is 1 to 50 nM; at EGFR [L858R/T790M], below 1 nM.

For `C=CC(=O)Nc1cc(Nc2nccc(-c3cc(F)c4oc(C)nc4c3)n2)c(OC)cc1N(C)CCN(C)C` [Example 31, N-(2-((2-(dimethylamino)ethyl)(methyl)amino)-5-((4-(7-fluoro-2-methylbenzo[d]oxazole-5-yl)pyrimidin-2-yl)amino)-4-methoxyphenyl)acrylamide], the IC50 in experiment [1] (setting [5]) is above 1000 nM.

Regarding `C=CC(=O)Nc1cc(Nc2nccc(-c3ccc4ncn(C(C)C)c4c3)n2)c(OC)cc1N(C)CCN(C)C` [Example 36, N-(2-((2-(dimethylamino)ethyl)(methyl)amino)-5-((4-(1-isopropyl-1H-benzo[d]imidazole-6-yl)pyrimidin-2-yl)amino)-4-methoxyphenyl)acrylamide], the figures for the IC50 against WT EGFR and on EGFR [L858R/T790M] were 1 to 50 nM and below 1 nM, respectively.

As for `C=CC(=O)Nc1cc(Nc2nccc(-c3ccc4nc(C(F)(F)F)n(C(C)C)c4c3)n2)c(OC)cc1N(C)CCN(C)C` [Example 37, N-(2-((2-(dimethylamino)ethyl)(methyl)amino)-5-((4-(1-isopropyl-2-(trifluoromethyl)-1H-benzo[d]imidazole-6-yl)pyrimidin-2-yl)amino)-4-methoxyphenyl)acrylamide], the IC50 at WT EGFR and at EGFR [L858R/T790M] was 1 to 50 nM in each case.

On to `C=CC(=O)Nc1cc(Nc2nccc(-c3cc(F)c4c(cnn4C)c3)n2)c(OC)cc1N(C)CCN(C)C` [Example 39, N-(2-((2-(dimethylamino)ethyl)(methyl)amino)-5-((4-(7-fluoro-1-methyl-indazole-5-yl)pyrimidin-2-yl)amino)-4-methoxyphenyl)acrylamide], for which, in experiment [1] (setting [3]), the IC50 lay in the range of 100 to 400 nM.

As to `C=CC(=O)Nc1cc(Nc2nccc(-c3cc(F)c4nc(C)n(C(C)C)c4c3)n2)c(OC(F)F)cc1N(C)CCN(C)C` [Example 47], the IC50 at WT EGFR was 1 to 50 nM; in experiment [1] (setting [5]), 400 to 1000 nM; in experiment [2] (setting [4]), below 10 nM.

Regarding `COc1cc(N2CCN(C)CC2)ccc1Nc1nccc(-c2cc(F)c3nc(C)n(C(C)C)c3c2)n1` [Example 54, 4-(4-fluoro-1-isopropyl-2-methyl-1H-benzo[d]imidazole-6-yl)-N-(2-methoxy-4-(4-methylpiperazin-1-yl)phenyl)pyrimidin-2-amine], the IC50 in experiment [1] (setting [5]) fell in the range of 400 to 1000 nM.

In the case of “N-(2-(4-ethoxypiperidin)-1-yl)-5-((4-(4-fluoro-1-isopropyl-2-methyl-1H-benzo[d]imidazole-6-yl)pyrimidin-2-yl)amino)-4-methoxyphenyl)acrylamide [Example 14]”, the IC50 in experiment [1] (MTS, 72 hours, read-out: A431 (WT) IC50) was above 1000 nM; in experiment [2] (MTS, 72 hours, read-out: HCC827 (Del19) IC50), 400 to 1000 nM.
